In ChEMBL document CHEMBL5505977, “Discovery of novel pyrrolo[2,3-d]pyrimidines as potent menin-mixed lineage leukemia interaction inhibitors” (Eur J Med Chem, 2024):

What was measured:
Menin = biological target: T1, Menin (Homo sapiens, UniProt O00255); test: Binding affinity to menin (unknown origin) incubated for 1 hr by fluorescence polarization assay
T1 sequence (O00255 whole entry): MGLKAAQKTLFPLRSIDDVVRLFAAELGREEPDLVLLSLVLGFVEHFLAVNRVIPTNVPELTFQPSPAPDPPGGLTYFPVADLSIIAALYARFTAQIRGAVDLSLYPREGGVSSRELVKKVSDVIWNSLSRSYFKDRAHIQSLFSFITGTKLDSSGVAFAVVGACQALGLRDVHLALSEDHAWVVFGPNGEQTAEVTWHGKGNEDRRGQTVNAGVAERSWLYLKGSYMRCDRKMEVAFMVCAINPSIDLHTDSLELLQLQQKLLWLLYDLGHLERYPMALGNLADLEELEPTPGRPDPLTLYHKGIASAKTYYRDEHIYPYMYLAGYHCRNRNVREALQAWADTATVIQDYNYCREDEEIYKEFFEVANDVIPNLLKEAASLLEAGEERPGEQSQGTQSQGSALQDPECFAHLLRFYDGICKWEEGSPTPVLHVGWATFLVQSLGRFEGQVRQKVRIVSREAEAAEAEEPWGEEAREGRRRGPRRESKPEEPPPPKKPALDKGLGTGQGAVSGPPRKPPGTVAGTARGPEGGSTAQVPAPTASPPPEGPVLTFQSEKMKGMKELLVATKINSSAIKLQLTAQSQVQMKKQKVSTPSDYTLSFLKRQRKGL

HL-60 = test: Antiproliferative activity against human HL-60 cells incubated for 72 hrs by MTT assay; type: functional, cell-based; conditions: HL-60, 72 h
MV4-11 [1] = test: cells; conditions: Homo sapiens, MV4-11, 72 h
Description: Antiproliferative activity against human MV4-11 cells incubated for 72 hrs by MTT assay

MV4-11 [2] = test: Antiproliferative activity against human MV4-11 cells incubated for 7 days by PrestoBlue Cell Viability assay; type: functional, cell-based; conditions: MV4-11, 168 h
[3] = biological target: Voltage-gated inwardly rectifying potassium channel KCNH2 (Homo sapiens, UniProt Q12809); test: Inhibition of human ERG expressed in CHO cells by Q-patch clamp assay; type: toxicity, cell-based
Chain of Voltage-gated inwardly rectifying potassium channel KCNH2 (Q12809 whole entry): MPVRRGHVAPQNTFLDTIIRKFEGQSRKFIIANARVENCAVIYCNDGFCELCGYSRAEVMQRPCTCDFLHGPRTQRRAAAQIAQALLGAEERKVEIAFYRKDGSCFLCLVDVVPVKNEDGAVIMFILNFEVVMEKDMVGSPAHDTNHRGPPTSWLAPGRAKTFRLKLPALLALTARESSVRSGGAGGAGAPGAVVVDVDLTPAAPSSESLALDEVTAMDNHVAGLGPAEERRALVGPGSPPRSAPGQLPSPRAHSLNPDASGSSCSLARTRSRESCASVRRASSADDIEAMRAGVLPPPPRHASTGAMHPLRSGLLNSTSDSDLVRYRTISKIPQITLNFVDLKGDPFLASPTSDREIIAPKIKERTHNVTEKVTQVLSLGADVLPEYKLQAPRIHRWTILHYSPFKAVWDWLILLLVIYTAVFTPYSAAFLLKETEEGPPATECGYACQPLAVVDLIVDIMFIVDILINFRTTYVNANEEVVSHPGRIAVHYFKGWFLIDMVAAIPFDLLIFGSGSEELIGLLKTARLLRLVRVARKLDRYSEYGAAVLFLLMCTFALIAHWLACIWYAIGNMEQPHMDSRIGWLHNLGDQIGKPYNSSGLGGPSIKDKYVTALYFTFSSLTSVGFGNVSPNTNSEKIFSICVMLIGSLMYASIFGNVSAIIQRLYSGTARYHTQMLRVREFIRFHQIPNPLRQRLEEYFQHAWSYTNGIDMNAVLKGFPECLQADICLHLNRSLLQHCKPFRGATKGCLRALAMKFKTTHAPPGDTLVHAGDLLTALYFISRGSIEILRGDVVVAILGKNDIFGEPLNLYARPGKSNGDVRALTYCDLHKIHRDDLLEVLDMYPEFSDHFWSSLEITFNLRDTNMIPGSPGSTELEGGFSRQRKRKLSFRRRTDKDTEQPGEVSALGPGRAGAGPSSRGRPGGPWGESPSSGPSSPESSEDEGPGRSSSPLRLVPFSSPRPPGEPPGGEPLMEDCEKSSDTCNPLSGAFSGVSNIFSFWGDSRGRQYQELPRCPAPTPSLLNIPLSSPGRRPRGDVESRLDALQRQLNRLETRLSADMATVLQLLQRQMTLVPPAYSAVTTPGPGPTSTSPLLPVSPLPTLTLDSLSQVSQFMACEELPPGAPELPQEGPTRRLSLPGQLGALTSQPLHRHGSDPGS

SU-DHL-6 = test: Antiproliferative activity against human SU-DHL-6 cells incubated for 72 hrs by MTT assay; type: functional, cell-based; conditions: SU-DHL-6, 72 h
Pfeiffer = test: Antiproliferative activity against human Pfeiffer cells incubated for 72 hrs by MTT assay; type: functional, cell-based
Raji = test: Antiproliferative activity against human Raji cells incubated for 72 hrs by MTT assay; type: functional, cell-based
Ramos = test: Antiproliferative activity against human Ramos cells incubated for 72 hrs by MTT assay; type: functional, cell-based
HCT-116 = test: Antiproliferative activity against human HCT-116 cells incubated for 72 hrs by MTT assay; type: functional, cell-based; conditions: HCT-116, 72 h
MCF7 = test: Antiproliferative activity against human MCF7 cells incubated for 72 hrs by MTT assay; type: functional, cell-based; conditions: MCF7, 72 h
[4] = Antiproliferative activity against human NCM460 cells incubated for 72 hrs by MTT assay; type: toxicity, cell-based

IC50 (Menin) [µM] | IC50 (HL-60) [µM] | IC50 (MV4-11 [1]) [µM] | SMILES | further results
> 10 | > 10 | > 10 | N#Cc1ccc(N2CC(CN3CCC(n4ccc5cncnc54)CC3)C2)cc1 | –
– | – | – | CC(C)N(C)C(=O)c1cc(F)ccc1-n1cc(C2CCN(C(=O)[C@H]3NC4CCC3CC4)CC2)c2ccncc21 | IC50 (MV4-11 [2]): 0.073 µM; IC50 [3]: > 100 µM
> 10 | > 10 | 6.54 | N#Cc1ccc(N2CC(CN3CCC(n4ccc5c(Cl)ncnc54)CC3)C2)cc1 | –
1.14 | > 10 | 1.35 | CC(C)(C)OC(=O)N1CC(S(=O)(=O)c2ccc(N3CC(CN4CCC(n5cc(-c6ccc(F)cc6)c6c(N)ncnc65)CC4)C3)cc2)C1 | –
0.53 | 8.8 | 1.69 | Nc1ncnc2c1c(-c1ccc(F)cc1)cn2C1CCN(CC2CN(c3ccc(S(=O)(=O)C4CCC4)cc3)C2)CC1 | –
– | > 10 | > 10 | CC[C@H](Nc1ncnc2[nH]cnc12)c1nc2cccc(F)c2c(=O)n1-c1ccccc1 [IDELALISIB] | IC50 (SU-DHL-6): 0.1 µM; IC50 (Pfeiffer): > 10 µM; IC50 (Raji): > 10 µM; IC50 (Ramos): > 10 µM; IC50 (HCT-116): > 10 µM; IC50 (MCF7): > 10 µM; IC50 at 72 h [4]: > 10 µM
> 10 | > 10 | > 10 | CN(C)CCOc1ncnc2c1ccn2C1CCN(CC2CN(c3ccc(C#N)cc3)C2)CC1 | –
0.25 | > 10 | 2 | Nc1ncnc2c1c(-c1ccc(F)cc1)cn2C1CCN(CC2CN(c3ccc(S(=O)(=O)C4CCCCC4)cc3)C2)CC1 | –
0.73 | > 10 | 2.05 | CS(=O)(=O)c1ccc(N2CC(CN3CCC(n4cc(-c5ccc(F)cc5)c5c(N)ncnc54)CC3)C2)cc1 | –
